Laboratory results taken from patent US8173638B2 (Boehringer Ingelheim International GmbH, priority 2006, dated 2012).
Read-outs that look alike come from different tables or passages of the source.

Target: T1, human CB2R (Homo sapiens, UniProt P34972)
T1 construct: host or cells: CHO cells
Experiment: CB2R mediated modulation of cAMP synthesis
Format: cell-based
Settings: for agonistic activity: found through the use of the described assays (CB2 agonists), qualitative statement; for Emax: 0.5 h, read-out: Agonist Efficacy (%)
Description: B. CB2R Mediated Modulation of cAMP Synthesis:
CHO cells expressing human CB2R (Euroscreen) were plated at a density of 5000 cells per well in 384 well plates and incubated overnight at 37° C. After removing the media, the cells were treated with test compounds diluted in stimulation buffer containing 1 mM IBMX, 0.25% BSA and 10 uM Forskolin. The assay was incubated for 30 minutes at 37° C. Cells were lysed and the cAMP concentration was measured using DiscoverX-XS cAMP kit, following the manufacturer's protocol. In this setting, agonists will decrease forskolin induced production of cAMP while inverse agonists will further increase forskolin induced production of cAMP. EC50 of agonists were calculated as follows. The maximal amount of cAMP produced by forskolin compared to the level of cAMP inhibited by 1 uM CP55940 is defined as 100%. […] Data was analyzed using a four-parameter logistic model. (Model 205 of XLfit 4.0).

[1] = CHO cells expressing human CB2R, cAMP inhibited by 1 uM CP55940 defined as 100%

T1 sequence (P34972 whole entry): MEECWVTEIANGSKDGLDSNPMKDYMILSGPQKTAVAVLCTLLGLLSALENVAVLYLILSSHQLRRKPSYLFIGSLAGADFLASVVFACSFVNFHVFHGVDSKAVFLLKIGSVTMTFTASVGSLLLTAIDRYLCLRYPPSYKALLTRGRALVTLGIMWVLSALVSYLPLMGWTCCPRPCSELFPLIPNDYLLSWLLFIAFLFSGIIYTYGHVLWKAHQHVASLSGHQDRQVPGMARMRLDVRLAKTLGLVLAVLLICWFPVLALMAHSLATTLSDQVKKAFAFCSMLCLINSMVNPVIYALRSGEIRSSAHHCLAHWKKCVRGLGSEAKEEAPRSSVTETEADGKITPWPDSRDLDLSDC

agonistic activity	SMILES	further results
agonistic activity	CC(C)(C)c1cc(NC(=O)N2CCCN(C(=O)C3CCC(NS(C)(=O)=O)CC3)CC2)no1 (centres unmarked) [4-(4-Methanesulfonylamino-cyclohexanecarbonyl)-[1,4]diazepane-1-carboxylic acid (5-tert-butyl-isoxazol-3-yl)-amide]	
agonistic activity	O=C(CC1CCCC1)N1CCCN(C(=O)Nc2cc(Cl)cc(Cl)c2)CC1 [4-(2-Cyclopentyl-acetyl)-[1,4]diazepane-1-carboxylic acid (3,5-dichloro-phenyl)-amide]	
agonistic activity	O=C(Nc1nc(-c2ccccc2)cs1)N1CCCN(C(=O)N2CCOCC2)CC1 [4-(Morpholine-4-carbonyl)-[1,4]diazepane-1-carboxylic acid (4-phenyl-thiazol-2-yl)-amide]	
	CC(C)(C)c1cnc(NC(=O)N2CCCN(C(=O)N3CCS(=O)(=O)CC3)CC2)s1 [Compound 214, 4-(1,1-Dioxo-1 λ^6-thiomorpholine-4-carbonyl)-[1,4]diazepane-1-carboxylic acid (5-tert-butyl-thiazol-2-yl)-amide]	Emax [1]: 95%; EC50 (read-out: hCB2 cAMP EC50): 20 nM
agonistic activity	CCC(C)c1ccc(NC(=O)N2CCCN(C(=O)c3ccccn3)CC2)cc1 (centres unmarked) [4-(Pyridine-2-carbonyl)-[1,4]diazepane-1-carboxylic acid (4-sec-butyl-phenyl)-amide]	
	Cc1nc(NC(=O)N2CCCN(C(=O)C3CCOCC3)CC2)sc1C(C)(C)C [Compound 183, 4-(Tetrahydro-pyran-4-carbonyl)-[1,4]diazepane-1-carboxylic acid (5-tert-butyl-4-methyl-thiazol-2-yl)-amide]	Emax [1]: 100%; EC50 (read-out: hCB2 cAMP EC50): 18 nM
agonistic activity	CC(C)c1ccc(NC(=O)N2CCCN(C(=O)c3ccncc3)CC2)cc1 [4-(Pyridine-4-carbonyl)-[1,4]diazepane-1-carboxylic acid (4-isopropyl-phenyl)-amide]	
agonistic activity	CN(C)c1ccc(NC(=O)N2CCCN(C(=O)CCC3CCCC3)CC2)cc1 [4-(3-Cyclopentyl-propionyl)-[1,4]diazepane-1-carboxylic acid (4-dimethylamino-phenyl)-amide]	
agonistic activity	CC(C)c1ccc(NC(=O)N2CCCN(C(=O)C3CCCCC3)CC2)cc1 [4-Cyclohexanecarbonyl-[1,4]diazepane-1-carboxylic acid (4-isopropyl-phenyl)-amide]	
agonistic activity	COc1ccc(C(=O)N2CCCN(C(=O)Nc3ccc4ccccc4c3)CC2)cc1 [4-(4-Methoxy-benzoyl)-[1,4]diazepane-1-carboxylic acid naphthalen-2-ylamide]	
agonistic activity	CC(C)(C)c1ccc(NC(=O)N2CCCN(C(=O)CC3CCCCC3)CC2)cc1 [4-(2-Cyclohexyl-acetyl)-[1,4]diazepane-1-carboxylic acid (4-tert-butyl-phenyl)-amide]	
	CC(C)(C)c1cc(NC(=O)N2CCCN(C(=O)c3ccc(Cl)cc3)CC2)no1 [Compound 141, 4-(4-Chloro-benzoyl)-[1,4]diazepane-1-carboxylic acid (5-tert-butyl-isoxazol-3-yl)-amide]	Emax [1]: 101%; EC50 (read-out: hCB2 cAMP EC50): 11 nM
agonistic activity	CCCCc1ccc(NC(=O)N2CCCN(C(=O)C3CCCCC3)CC2)cc1	
	O=C(Nc1ccc2ccccc2c1)N1CCCN(C(=O)c2ccc(Cl)c(Cl)c2)CC1 [Compound 86, 4-(3,4-Dichloro-benzoyl)-[1,4]diazepane-1-carboxylic acid naphthalen-2-ylamide]	Emax [1]: 92%; EC50 (read-out: hCB2 cAMP EC50): 52 nM
agonistic activity	CCC(C)c1ccc(NC(=O)N2CCCN(C(=O)N3CCS(=O)(=O)CC3)CC2)cc1 (centres unmarked) [4-(1,1-Dioxo-1λ^6-thiomorpholine-4-carbonyl)-[1,4]diazepane-1-carboxylic acid (4-sec-butyl-phenyl)-amide]	
	CC(C)c1ccc(NC(=O)N2CCCN(C(=O)CCC3CC3)CC2)cc1 [Compound 55, 4-(3-Cyclopropyl-propionyl)-[1,4]diazepane-1-carboxylic acid (4-isopropyl-phenyl)-amide]	Emax [1]: 105%; EC50 (read-out: hCB2 cAMP EC50): 89 nM
agonistic activity	CCCCc1ccc(NC(=O)N2CCCN(C(=O)CC3CCCC3)CC2)cc1	

agonistic activity	SMILES	further results
	O=C(Nc1nc(-c2ccccc2)cs1)N1CCCN(C(=O)C2CCC(O)CC2)CC1 (centres unmarked) [Compound 174, 4-(4-Hydroxy-cyclohexanecarbonyl)-[1,4]diazepane-1-carboxylic acid (4-phenyl-thiazol-2-yl)-amide]	EC50: 43 nM; Emax (CHO): 102%
agonistic activity	CCCC(=O)c1ccc(NC(=O)N2CCCN(C(=O)CC3CCCC3)CC2)cc1 [4-(2-Cyclopentyl-acetyl)-[1,4]diazepane-1-carboxylic acid (4-butyryl-phenyl)-amide]	
agonistic activity	CC(C)(C)c1cc(NC(=O)N2CCCN(C(=O)C3CCC(F)(F)CC3)CC2)on1 [4-(4,4-Difluoro-cyclohexanecarbonyl)-[1,4]diazepane-1-carboxylic acid (3-tert-butyl-isoxazol-5-yl)-amide]	
agonistic activity	CC(C)(C)c1ccc(NC(=O)N2CCCN(C(=O)CCC3CCCCC3)CC2)cc1 [4-(3-Cyclohexyl-propionyl)-[1,4]diazepane-1-carboxylic acid (4-tert-butyl-phenyl)-amide]	
agonistic activity	CC(=O)NC1CCC(C(=O)N2CCCN(C(=O)Nc3cc(C(C)(C)C)on3)CC2)CC1 (centres unmarked) [4-(4-Acetylamino-cyclohexanecarbonyl)-[1,4]diazepane-1-carboxylic acid (5-tert-butyl-isoxazol-3-yl)-amide]	
agonistic activity	CC(C)(C)c1csc(NC(=O)N2CCCN(C(=O)C3CCOCC3)CC2)n1 [4-(Tetrahydro-pyran-4-carbonyl)-[1,4]diazepane-1-carboxylic acid (4-tert-butyl-thiazol-2-yl)-amide]	
	CCC(C)c1ccc(NC(=O)N2CCCN(C(=O)C3CCOCC3)CC2)nc1 (centres unmarked) [Compound 196, 4-(Tetrahydro-pyran-4-carbonyl)-[1,4]diazepane-1-carboxylic acid (5-sec-butyl-pyridin-2-yl)-amide]	Emax [1]: 77%; EC50 (read-out: hCB2 cAMP EC50): 47 nM
agonistic activity	C[C@@H]1CN(CC(=O)N2CCCN(C(=O)Nc3cc(C(C)(C)C)on3)CC2)C[C@H](C)O1 [4-[2-((2R,6S)-2,6-Dimethyl-morpholin-4-yl)-acetyl]-[1,4]diazepane-1-carboxylic acid (5-tert-butyl-isoxazol-3-yl)-amide]	
agonistic activity	CC(C)(C)c1ccc(NC(=O)N2CCCN(C(=O)CN3CCSCC3)CC2)cc1 [4-(2-Thiomorpholin-4-yl-acetyl)-[1,4]diazepane-1-carboxylic acid (4-tert-butyl-phenyl)-amide]	
agonistic activity	CC(C)(C)c1cc(NC(=O)N2CCCN(C(=O)C3CCCC3)CC2)no1 [4-Cyclopentanecarbonyl-[1,4]diazepane-1-carboxylic acid (5-tert-butyl-isoxazol-3-yl)-amide]	
agonistic activity	O=C(Nc1nc2c(s1)CCCC2)N1CCCN(C(=O)C2CCOCC2)CC1 [4-(Tetrahydro-pyran-4-carbonyl)-[1,4]diazepane-1-carboxylic acid (4,5,6,7-tetrahydro-benzothiazol-2-yl)-amide]	
agonistic activity	CC(C)c1ccc(NC(=O)N2CCCN(C(=O)CC3CCCC3)CC2)cc1 [4-(2-Cyclopentyl-acetyl)-[1,4]diazepane-1-carboxylic acid (4-isopropyl-phenyl)-amide]	
agonistic activity	CC(C)(C)c1cc(NC(=O)N2CCCN(C(=O)CC3CCCO3)CC2)no1 (centres unmarked) [4-(2-Tetrahydro-furan-2-yl-acetyl)-[1,4]diazepane-1-carboxylic acid (5-tert-butyl-isoxazol-3-yl)-amide]	
agonistic activity	CC(C)(C)c1cc(NC(=O)N2CCCN(C(=O)CN3CCC(F)(F)CC3)CC2)no1 [4-[2-(4,4-Difluoro-piperidin-1-yl)-acetyl]-[1,4]diazepane-1-carboxylic acid (5-tert-butyl-isoxazol-3-yl)-amide]	
	CC(C)(C)c1cc(NC(=O)N2CCCN(C(=O)N3CCSCC3)CC2)no1 [Compound 203, 4-(Thiomorpholine-4-carbonyl)-[1,4]diazepane-1-carboxylic acid (5-tert-butyl-isoxazol-3-yl)-amide]	Emax [1]: 107%; EC50 (read-out: hCB2 cAMP EC50): 62 nM
agonistic activity	CC(C)CCC(=O)N1CCCN(C(=O)Nc2ccc(C(C)C)cc2)CC1 [4-(4-Methyl-pentanoyl)-[1,4]diazepane-1-carboxylic acid (4-isopropyl-phenyl)-amide]	

SMILES	agonistic activity	further results
CC(C)(C)c1ccc(NC(=O)N2CCCN(C(=O)CC3CCCC3)CC2)cc1 [4-(2-Cyclopentyl-acetyl)-[1,4]diazepane-1-carboxylic acid (4-tert-butyl-phenyl)-amide]	agonistic activity	
CCC(C)c1cc(NC(=O)N2CCCN(C(=O)C3CCOCC3)CC2)on1 (centres unmarked) [4-(Tetrahydro-pyran-4-carbonyl)-[1,4]diazepane-1-carboxylic acid (3-sec-butyl-isoxazol-5-yl)-amide]	agonistic activity	
CC(C)(C)c1cc(NC(=O)N2CCCN(C(=O)C3CCNCC3)CC2)no1 [4-(Piperidine-4-carbonyl)-[1,4]diazepane-1-carboxylic acid (5-tert-butyl-isoxazol-3-yl)-amide]	agonistic activity	
